In PubChem BioAssay AID1963976 (Molecular Pharmacology Branch, DTP, NCI, 2024):
Each block holds one compound with its values, some of them ahead of it.

Test system: 435261-313-R-J1-PDC tumor spheroid viability
Assay: Anticancer human tumor 435261-313-R-J1-PDC patient-derived colon adenocarcinoma cell line growth inhibition [PI3K]
Conditions: spheroids with HUVEC and MSC; for IC50: curve of first compound; for viability, T/C: stronger effect = lower value
Outline: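 Stroma-containing spheroids: tumor line, pooled-donor HUVEC, hMSC. Treatments: targeted agents with PI3K inhibitors. Dosing: clinically relevant, half-log spacing, 10 microM ceiling without known Cmax. Read-out: cell viability.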

[1] = second compound 0.00316 µM, first compound 0.0316 µM
[2] = second compound 0.00316 µM, first compound 0.1 µM
[3] = second compound 0.00316 µM, first compound 0.316 µM
[4] = second compound 0.00316 µM, first compound 1 µM
[5] = second compound 0.00316 µM, first compound 3.16 µM
[6] = second compound 0.00316 µM, first compound 10 µM
[7] = second compound 0.01 µM, first compound 0.0316 µM
[8] = second compound 0.01 µM, first compound 0.1 µM
[9] = second compound 0.01 µM, first compound 0.316 µM
[10] = second compound 0.01 µM, first compound 1 µM
[11] = second compound 0.01 µM, first compound 3.16 µM
[12] = second compound 0.01 µM, first compound 10 µM
[13] = second compound 0.0316 µM, first compound 0.0316 µM
[14] = second compound 0.0316 µM, first compound 0.1 µM
[15] = second compound 0.0316 µM, first compound 0.316 µM
[16] = second compound 0.0316 µM, first compound 1 µM
[17] = second compound 0.0316 µM, first compound 3.16 µM
[18] = second compound 0.0316 µM, first compound 10 µM
[19] = second compound 0.1 µM, first compound 0.0316 µM
[20] = second compound 0.1 µM, first compound 0.1 µM
[21] = second compound 0.1 µM, first compound 0.316 µM
[22] = second compound 0.1 µM, first compound 1 µM
[23] = second compound 0.1 µM, first compound 3.16 µM
[24] = second compound 0.1 µM, first compound 10 µM
[25] = second compound 0.316 µM, first compound 0.0316 µM
[26] = second compound 0.316 µM, first compound 0.1 µM
[27] = second compound 0.316 µM, first compound 0.316 µM
[28] = second compound 0.316 µM, first compound 1 µM
[29] = second compound 0.316 µM, first compound 3.16 µM
[30] = second compound 0.316 µM, first compound 10 µM
[31] = second compound 1 µM, first compound 0.0316 µM
[32] = second compound 1 µM, first compound 0.1 µM
[33] = second compound 1 µM, first compound 0.316 µM
[34] = second compound 1 µM, first compound 1 µM
[35] = second compound 1 µM, first compound 3.16 µM
[36] = second compound 1 µM, first compound 10 µM
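Also: spheroids exposed to compounds for 7 days.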

- IC50 (second compound 0.00316 µM): 4970 nM
- IC50 (second compound 0.01 µM): 3250 nM
- IC50 (second compound 0.0316 µM): < 31.6 nM
- IC50 (second compound 0.1 µM): < 31.6 nM
- IC50 (second compound 0.316 µM): < 31.6 nM
- IC50 (second compound 1 µM): < 31.6 nM
Compound: CC1(C)CCC(CN2CCN(c3ccc(C(=O)NS(=O)(=O)c4ccc(NCC5CCOCC5)c([N+](=O)[O-])c4)c(Oc4cnc5[nH]ccc5c4)c3)CC2)=C(c2ccc(Cl)cc2)C1 + COc1c(OCCCN2CCOCC2)ccc2c3n(c(=NC(=O)c4cnc(N)nc4)nc12)CCN3
- viability, T/C [1]: 77.8%
- viability, T/C [2]: 65%
- viability, T/C [3]: 59.7%
- viability, T/C [4]: 66.4%
- viability, T/C [5]: 92.9%
- viability, T/C [6]: 15.3%
- viability, T/C [7]: 45.6%
- viability, T/C [8]: 41.2%
- viability, T/C [9]: 44%
- viability, T/C [10]: 81%
- viability, T/C [11]: 49.6%
- viability, T/C [12]: 10%
- viability, T/C [13]: 25.2%
- viability, T/C [14]: 25.9%
- viability, T/C [15]: 28.5%
- viability, T/C [16]: 22.6%
- viability, T/C [17]: 33.9%
- viability, T/C [18]: 8.36%
- viability, T/C [19]: 16.8%
- viability, T/C [20]: 15.3%
- viability, T/C [21]: 14.9%
- viability, T/C [22]: 13.9%
- viability, T/C [23]: 13.5%
- viability, T/C [24]: 5.88%
- viability, T/C [25]: 8.12%
- viability, T/C [26]: 8.36%
- viability, T/C [27]: 8.35%
- viability, T/C [28]: 7.93%
- viability, T/C [29]: 9.73%
- viability, T/C [30]: 4.39%
- viability, T/C [31]: 4.19%
- viability, T/C [32]: 4.08%
- viability, T/C [33]: 4.61%
- viability, T/C [34]: 5.2%
- viability, T/C [35]: 6.19%
- viability, T/C [36]: 3.8%

- IC50 (second compound 0.00316 µM): > 10000 nM
- IC50 (second compound 0.01 µM): > 10000 nM
- IC50 (second compound 0.0316 µM): < 31.6 nM
- IC50 (second compound 0.1 µM): < 31.6 nM
- IC50 (second compound 0.316 µM): < 31.6 nM
- IC50 (second compound 1 µM): < 31.6 nM
Compound: C[C@@H](NC(=O)c1ncnc(N)c1Cl)c1ncc(C(=O)Nc2cc(C(F)(F)F)c(Cl)cn2)s1 + COc1c(OCCCN2CCOCC2)ccc2c3n(c(=NC(=O)c4cnc(N)nc4)nc12)CCN3
- viability, T/C [1]: 133%
- viability, T/C [2]: 138%
- viability, T/C [3]: 70%
- viability, T/C [4]: 120%
- viability, T/C [5]: 99.2%
- viability, T/C [6]: 78.6%
- viability, T/C [7]: 66.2%
- viability, T/C [8]: 70.4%
- viability, T/C [9]: 69.8%
- viability, T/C [10]: 103%
- viability, T/C [11]: 63.3%
- viability, T/C [12]: 53.2%
- viability, T/C [13]: 32.7%
- viability, T/C [14]: 33.6%
- viability, T/C [15]: 47.5%
- viability, T/C [16]: 30.1%
- viability, T/C [17]: 37.8%
- viability, T/C [18]: 17.5%
- viability, T/C [19]: 20.4%
- viability, T/C [20]: 21.7%
- viability, T/C [21]: 22%
- viability, T/C [22]: 19.5%
- viability, T/C [23]: 18.2%
- viability, T/C [24]: 8.2%
- viability, T/C [25]: 10.8%
- viability, T/C [26]: 13.1%
- viability, T/C [27]: 12.2%
- viability, T/C [28]: 13.3%
- viability, T/C [29]: 10.5%
- viability, T/C [30]: 3.91%
- viability, T/C [31]: 5.11%
- viability, T/C [32]: 6.44%
- viability, T/C [33]: 7.13%
- viability, T/C [34]: 7.09%
- viability, T/C [35]: 5.4%
- viability, T/C [36]: 2.3%

- IC50 (second compound 0.00316 µM): 47.7 nM
- IC50 (second compound 0.01 µM): 0.895 nM
- IC50 (second compound 0.0316 µM): < 0.316 nM
- IC50 (second compound 0.1 µM): < 0.316 nM
- IC50 (second compound 0.316 µM): < 0.316 nM
- IC50 (second compound 1 µM): < 0.316 nM
Compound: Cn1ncnc1[C@H]1c2n[nH]c(=O)c3cc(F)cc(c23)N[C@@H]1c1ccc(F)cc1 + COc1c(OCCCN2CCOCC2)ccc2c3n(c(=NC(=O)c4cnc(N)nc4)nc12)CCN3
- viability, T/C (second compound 0.00316 µM, first compound 0.000316 µM): 87%
- viability, T/C (second compound 0.00316 µM, first compound 0.001 µM): 41.6%
- viability, T/C (second compound 0.00316 µM, first compound 0.00316 µM): 76%
- viability, T/C (second compound 0.00316 µM, first compound 0.01 µM): 66.4%
- viability, T/C [1]: 55%
- viability, T/C [2]: 39%
- viability, T/C (second compound 0.01 µM, first compound 0.000316 µM): 62.5%
- viability, T/C (second compound 0.01 µM, first compound 0.001 µM): 51%
- viability, T/C (second compound 0.01 µM, first compound 0.00316 µM): 36.7%
- viability, T/C (second compound 0.01 µM, first compound 0.01 µM): 52.7%
- viability, T/C [7]: 58.7%
- viability, T/C [8]: 35%
- viability, T/C (second compound 0.0316 µM, first compound 0.000316 µM): 24.6%
- viability, T/C (second compound 0.0316 µM, first compound 0.001 µM): 23%
- viability, T/C (second compound 0.0316 µM, first compound 0.00316 µM): 27.1%
- viability, T/C (second compound 0.0316 µM, first compound 0.01 µM): 21.2%
- viability, T/C [13]: 21.9%
- viability, T/C [14]: 22.5%
- viability, T/C (second compound 0.1 µM, first compound 0.000316 µM): 17.3%
- viability, T/C (second compound 0.1 µM, first compound 0.001 µM): 16.6%
- viability, T/C (second compound 0.1 µM, first compound 0.00316 µM): 20.1%
- viability, T/C (second compound 0.1 µM, first compound 0.01 µM): 15.8%
- viability, T/C [19]: 16.8%
- viability, T/C [20]: 14.4%
- viability, T/C (second compound 0.316 µM, first compound 0.000316 µM): 8.3%
- viability, T/C (second compound 0.316 µM, first compound 0.001 µM): 7.7%
- viability, T/C (second compound 0.316 µM, first compound 0.00316 µM): 6.69%
- viability, T/C (second compound 0.316 µM, first compound 0.01 µM): 7.31%
- viability, T/C [25]: 8.06%
- viability, T/C [26]: 7.38%
- viability, T/C (second compound 1 µM, first compound 0.000316 µM): 3.97%
- viability, T/C (second compound 1 µM, first compound 0.001 µM): 3.84%
- viability, T/C (second compound 1 µM, first compound 0.00316 µM): 3.78%
- viability, T/C (second compound 1 µM, first compound 0.01 µM): 3.5%
- viability, T/C [31]: 4.54%
- viability, T/C [32]: 2.9%
